Results as given in paper PMC4774911, “Biochemical Screening of Five Protein Kinases from Plasmodium falciparum against 14,000 Cell-Active Compounds” (PLoS ONE, 2016).
Read-outs that look alike come from different tables or passages of the source.

Key:
[1] = biological target: T1, Plasmodium falciparum calcium-dependent protein kinase 4 (CDPK4) (Plasmodium falciparum, UniProt Q8IBS5); assay: CDPK4 Kinase-Glo ATP-consumption screen and dose-response; assay type: biochemical; conditions: hits below 1 uM
T1 construct: 6-Histidine (N); made in house
T1 sequence (Q8IBS5 1-528): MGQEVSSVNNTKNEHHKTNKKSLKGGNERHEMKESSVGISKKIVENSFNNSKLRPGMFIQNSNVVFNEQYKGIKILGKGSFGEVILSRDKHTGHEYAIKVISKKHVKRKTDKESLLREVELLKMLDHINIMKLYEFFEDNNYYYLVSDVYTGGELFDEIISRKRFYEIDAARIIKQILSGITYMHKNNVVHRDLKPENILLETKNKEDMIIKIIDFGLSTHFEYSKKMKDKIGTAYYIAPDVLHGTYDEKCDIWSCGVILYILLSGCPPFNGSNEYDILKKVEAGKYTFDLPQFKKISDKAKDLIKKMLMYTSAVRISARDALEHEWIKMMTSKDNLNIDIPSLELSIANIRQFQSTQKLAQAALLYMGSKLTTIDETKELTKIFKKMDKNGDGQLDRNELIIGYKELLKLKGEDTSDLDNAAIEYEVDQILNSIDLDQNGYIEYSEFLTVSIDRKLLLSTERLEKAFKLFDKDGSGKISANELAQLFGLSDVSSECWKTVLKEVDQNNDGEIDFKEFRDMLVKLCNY
Outline: (§1)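 Single-point testing used 1 μM final compound, then dose-response, against CDPK4 and CDPK1 with Syntide-2 (40 μM) as substrate. After 90 min, reactions were halted by 5 mM EGTA, and kinase activity was inferred from depleted ATP via Kinase-Glo luminescence.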

[2] = test system: P. falciparum DD2; parameters: method as in ChEMBL; conditions: ref ChEMBL; cited from earlier work
[3] = test system: 3D7 PFLDH; parameters: method as in ChEMBL; conditions: ref ChEMBL; cited from earlier work
[4] = biological target: T2, PKG (Plasmodium falciparum, UniProt Q8I719); assay: PKG IC50 (supplementary data file); assay type: biochemical
T2 sequence (Q8I719 whole entry): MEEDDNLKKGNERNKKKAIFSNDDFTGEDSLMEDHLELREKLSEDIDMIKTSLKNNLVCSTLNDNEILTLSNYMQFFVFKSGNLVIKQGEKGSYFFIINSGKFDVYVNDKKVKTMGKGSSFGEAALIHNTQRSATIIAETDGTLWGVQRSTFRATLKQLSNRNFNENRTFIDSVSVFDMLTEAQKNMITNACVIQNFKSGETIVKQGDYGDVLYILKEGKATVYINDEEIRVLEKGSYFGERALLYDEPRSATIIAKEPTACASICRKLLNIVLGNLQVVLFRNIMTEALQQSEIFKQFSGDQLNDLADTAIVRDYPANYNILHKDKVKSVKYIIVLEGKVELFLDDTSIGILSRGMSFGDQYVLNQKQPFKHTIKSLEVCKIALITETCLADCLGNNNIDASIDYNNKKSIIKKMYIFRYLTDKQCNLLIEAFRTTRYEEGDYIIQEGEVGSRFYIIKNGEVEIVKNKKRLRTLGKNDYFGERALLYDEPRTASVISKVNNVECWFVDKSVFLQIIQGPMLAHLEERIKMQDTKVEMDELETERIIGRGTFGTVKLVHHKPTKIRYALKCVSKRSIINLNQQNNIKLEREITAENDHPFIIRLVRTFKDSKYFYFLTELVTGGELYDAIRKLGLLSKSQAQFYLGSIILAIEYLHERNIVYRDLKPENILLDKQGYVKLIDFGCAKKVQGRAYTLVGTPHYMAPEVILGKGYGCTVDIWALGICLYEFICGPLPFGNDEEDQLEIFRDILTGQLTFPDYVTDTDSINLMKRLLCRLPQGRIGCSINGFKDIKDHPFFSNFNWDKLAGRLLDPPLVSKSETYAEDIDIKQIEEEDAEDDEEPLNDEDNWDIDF
Text: (§2) Supplement pone.0149996.s003.xls, sheet "combined_1_sorted"

[5] = test system: HepG2 cells; conditions: HepG2 cells, cited from earlier work
[6] = test system: P. falciparum 3D7 cells; conditions: P. falciparum 3D7, cited from earlier work
[7] = test system: DD2; parameters: method as in F.J. Gamo et al., Nature 2010; conditions: P. falciparum Dd2; downloaded from ChEMBL ref F.J. Gamo et al., Nature 2010; cited from earlier work
[8] = biological target: T2, PKG; assay: PKG IC50 (supplementary data file of hits); assay type: biochemical
Text: as §2

[9] = test system: 3D7 PFLDH; parameters: method as in F.J. Gamo et al., Nature 2010; conditions: downloaded from ChEMBL ref F.J. Gamo et al., Nature 2010; cited from earlier work
[10] = biological target: T3, Plasmodium falciparum calcium-dependent protein kinase 1 (CDPK1) (Plasmodium falciparum, UniProt P62344); assay: CDPK1 Kinase-Glo ATP-consumption screen and dose-response; assay type: biochemical
T3 construct: 6-Histidine (N); made in house
T3 sequence (P62344 whole entry): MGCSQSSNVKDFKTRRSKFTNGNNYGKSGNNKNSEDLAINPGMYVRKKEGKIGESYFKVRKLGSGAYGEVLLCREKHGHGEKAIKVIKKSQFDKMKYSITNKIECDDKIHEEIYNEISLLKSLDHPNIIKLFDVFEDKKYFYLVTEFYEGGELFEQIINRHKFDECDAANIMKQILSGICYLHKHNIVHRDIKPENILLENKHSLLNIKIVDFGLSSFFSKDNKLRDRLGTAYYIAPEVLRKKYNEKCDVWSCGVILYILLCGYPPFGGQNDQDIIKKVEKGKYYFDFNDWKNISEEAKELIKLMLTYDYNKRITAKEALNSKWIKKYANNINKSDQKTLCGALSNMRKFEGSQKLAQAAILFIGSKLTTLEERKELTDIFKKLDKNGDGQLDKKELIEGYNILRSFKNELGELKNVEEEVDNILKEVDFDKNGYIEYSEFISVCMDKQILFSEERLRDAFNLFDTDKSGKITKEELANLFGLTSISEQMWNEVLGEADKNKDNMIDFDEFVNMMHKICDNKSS
Outline: as §1

[11] = biological target: T4, Plasmodium falciparum protein kinase 6 (PK6) (Plasmodium falciparum, UniProt Q8IDW1); assay: biochemical
T4 construct: 6-Histidine (N); made in house
T4 sequence (Q8IDW1 1-305): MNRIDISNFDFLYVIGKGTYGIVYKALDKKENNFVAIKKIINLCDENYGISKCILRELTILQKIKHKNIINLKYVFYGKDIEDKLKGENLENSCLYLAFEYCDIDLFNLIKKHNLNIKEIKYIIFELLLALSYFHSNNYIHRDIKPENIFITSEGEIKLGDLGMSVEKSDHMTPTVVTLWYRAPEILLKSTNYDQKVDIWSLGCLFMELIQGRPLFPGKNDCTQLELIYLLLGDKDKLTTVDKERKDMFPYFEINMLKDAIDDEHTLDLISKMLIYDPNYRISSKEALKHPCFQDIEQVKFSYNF

[12] = downloaded from ChEMBL ref F.J. Gamo et al., Nature 2010
[13] = hits below 1 uM, read-out: CDPK1 IC50
[14] = hits below 1 uM, read-out: PK6 IC50

Compound	IC50 [1] [nM]	PCT_INHB_DD2 [2]	PCT_INHIB_3D7_PFLDH [3]	IC50 [4] [nM]	PCT_INHIB_HEPG2 ([5]; ref ChEMBL)	PCT_IHB_3D7 ([6]; ref ChEMBL)	pXC50_3D7 ([6]; ref ChEMBL)	PCT_INHB_DD2 [7]	PCT_INHIB_HEPG2 [5, 12]	IC50 [8] [nM]	PCT_IHB_3D7 [6, 12]	pXC50_3D7 [6, 12]	PCT_INHIB_3D7_PFLDH [9]	IC50 [10, 13] [nM]	IC50 [11, 14] [nM]	IC50 [10] [nM]	IC50 [11] [nM]
N#Cc1ccc(C(=O)Nc2cc(-c3cccc(O)c3)cc3[nH]ncc23)cc1 [TCMDC-134118]	478	79	0	> 10000	15	90	5.863										
O=C(Nc1ccccc1)Nc1cccc(-c2nn3c(OCCN4CCCC4)cccc3c2-c2ccncc2)c1 [TCMDC-135539]	775							98	30	> 10000	100	6.394	4				
Cn1cccc1C(=O)Nc1cccc(-c2nn3ccccc3c2-c2ccnc(Nc3ccc4c(c3)OCCO4)n2)c1 [TCMDC-135663]	191							27	12	> 10000	95	5.869	4				
CCS(=O)(=O)c1ccc(OC)c(Nc2nccc(-c3c(-c4cccc(NC(=O)c5c(F)cccc5F)c4)nn4ncccc34)n2)c1 [TCMDC-135682]	201							88	27	> 10000	87	5.986	0				
CCN(CC)CCNC(=O)c1ccc(N/C=C2\C(=O)Nc3ccc(S(=O)(=O)Cc4c(Cl)cccc4Cl)cc32)cc1 [TCMDC-135945]	73	56	3	> 10000	25	100	6.0758										
NS(=O)(=O)c1cccc(N/C=C2\C(=O)Nc3ccc(S(=O)(=O)Cc4c(Cl)cccc4Cl)cc32)c1 [TCMDC-135947]	116	99	4	> 10000	1	92	6.143										
Cc1csc(-c2ncc(OC[C@@H](N)Cc3ccccc3)cc2-c2ccc3[nH]nc(C)c3c2)c1.O=C(O)C(F)(F)F [TCMDC-136087]	420	35	4	> 10000	48	98	6.078							44			
Cc1n[nH]c2ccc(-c3cc(OC[C@@H](N)Cc4ccccc4)cnc3-c3cc4ccccc4s3)cc12.O=C(O)C(F)(F)F [TCMDC-136352]	563	68	0	> 10000	41	99	6.092										
O=CO.O=S1(=O)NCc2ccc(Nc3nccc(Nc4ccc5c(cnn5Cc5ccccc5)c4)n3)cc21 [TCMDC-138840]		33	0		0	94	6.125							110	265		
CC(C)(CN)c1nc(-c2ccc(Br)c(O)c2)c(-c2ccncc2)[nH]1.Cl [TCMDC-140680]								97	31	242	96	6.015	0	19			
CCN(CC)CCOc1ccc(Nc2ncc3cc(-c4c(Cl)cccc4Cl)c(=O)n(C)c3n2)cc1 [TCMDC-140940]		91	1		72	90	5.929									780	350
Cl.Nc1ncnc2occ(-c3ccc(NC(=O)Nc4cc(C(F)(F)F)ccc4F)cc3)c12 [TCMDC-141371]		99	0		57	99	5.765							165	335		
